The record followed here is ChEMBL document CHEMBL1153401, “Role of the hydrogen bonding heteroatom-Lys53 interaction between the p38alpha mitogen-activated protein (MAP) kinase and pyridinyl-substituted 5-membered heterocyclic ring inhibitors” (J Med Chem, 2009).

For this test, the target named is Mitogen-activated protein kinase 14 (Homo sapiens, UniProt Q16539). Description: Inhibition of p38alpha MAP kinase.

SMILES strings stand for the structures.

Sequence of Mitogen-activated protein kinase 14 (Q16539 whole entry): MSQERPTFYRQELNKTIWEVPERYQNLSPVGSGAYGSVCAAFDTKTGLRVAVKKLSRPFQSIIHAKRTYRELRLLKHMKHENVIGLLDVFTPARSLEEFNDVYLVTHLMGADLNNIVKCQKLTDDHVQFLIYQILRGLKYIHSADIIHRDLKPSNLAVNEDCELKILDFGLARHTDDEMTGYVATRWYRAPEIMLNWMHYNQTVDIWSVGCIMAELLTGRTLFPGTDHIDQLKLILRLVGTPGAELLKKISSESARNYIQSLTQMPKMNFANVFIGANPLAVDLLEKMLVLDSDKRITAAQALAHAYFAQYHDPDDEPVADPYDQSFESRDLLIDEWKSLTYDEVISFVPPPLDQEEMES

In general, IC50 refers to the point on the concentration scale where inhibition reaches its midpoint. Higher therefore signals weaker potency. `Fc1ccc(-c2occc2-c2ccncc2)cc1` returned an IC50 of 740 nM.
Molecule `Fc1ccc(C2=C(c3ccncc3)CCC2)cc1` registered an IC50 of 4050 nM.
For `Fc1ccc(-c2nc[nH]c2-c2ccncc2)cc1`, the IC50 was found to be 79 nM.
As for `Fc1ccc(-c2[nH]ccc2-c2ccncc2)cc1`, the IC50 was 420 nM.
